Legend:
[1] = Apparent thermodynamic analysis of ITN dissolution (van't Hoff and Gibbs equations); format: physicochemical
Description: At the mean harmonic temperature (Thm), all apparent thermodynamic parameters for ITN were determined. The Thm was determined using the reported equation [51, 56]. […] The “van’t Hoff and Gibbs equations” were used to calculate these parameters. The ΔsolH^0 values for ITN (3) in various {DMSO (1) + H2O (2)} mixtures were calculated using Equation (10) and Thm = 308 K [47, 62]:(10) ∂lnxe/∂1/T−1/ThmP=−∆solH^0/R
The “ΔsolH^0” for ITN was derived using the graphed “van’t Hoff” plots between the ln xe values of ITN and 1/T−1/Thm .
Additionally, at Thm = 308 K, the ΔsolG^0 for ITN (3) in binary {DMSO (1) + H2O (2)} mixes was calculated using the Krug et al. methodology via Equation (11):(11) ∆solG^0=−RThm×intercept where, the “van’t Hoff plots” shown in Figure 5 were used to determine the intercept values for ITN (3) in binary mixtures of DMSO (1) and H2O (2).
By Equation (12), the ΔsolS^0 for ITN (3) in numerous {DMSO (1) + H2O (2)} mixtures was derived:(12) ∆solS^0=∆solH^0−∆solG^0/Thm

[2] = set-up: method as in PMID 36431759; conditions: cited from earlier work
[3] = Activity coefficients (γi) of ITN, Equation (4); format: physicochemical
Source text: Finally, the x^idl values for ITN were derived from Equation (2). Equation (4) was used to derive the γi values for ITN in numerous {DMSO (1) + H2O (2)} mixes including neat DMSO and H2O [56, 58]:(4) γi=x^idl/xe

[4] = Enthalpy-entropy compensation analysis; format: physicochemical; conditions: all {DMSO (1) + H2O (2)} mixes, neat DMSO and H2O, Thm = 308 K
Source text: An enthalpy–entropy compensation analysis was used, as previously described, to evaluate the solvation behavior of ITN (3) in numerous mixes of {DMSO (1) + H2O (2)}. Weighted curves of ΔsolH° vs. ΔsolG° were generated at Thm = 308 K for this experiment.

[5] = DMSO mass fraction m = 0.0, Thm = 308 K
[6] = DMSO mass fraction m = 0.1, Thm = 308 K
[7] = DMSO mass fraction m = 0.2, Thm = 308 K
[8] = DMSO mass fraction m = 0.3, Thm = 308 K
[9] = DMSO mass fraction m = 0.4, Thm = 308 K
[10] = DMSO mass fraction m = 0.5, Thm = 308 K
[11] = DMSO mass fraction m = 0.6, Thm = 308 K
[12] = DMSO mass fraction m = 0.7, Thm = 308 K
[13] = DMSO mass fraction m = 0.8, Thm = 308 K
[14] = DMSO mass fraction m = 0.9, Thm = 308 K
[15] = DMSO mass fraction m = 1.0, Thm = 308 K

ΔsolG^0 apparent standard Gibbs energy [1, 5]: 36.27 (0.43) kJ mol^−1
ΔsolH^0 apparent standard enthalpy [1, 5]: 63.00 (0.76) kJ mol^−1
ΔsolS^0 apparent standard entropy [1, 5]: 86.78 (1.12) J mol^−1 K^−1
ΔsolG^0 apparent standard Gibbs energy [1, 6]: 33.20 (0.41) kJ mol^−1
ΔsolH^0 apparent standard enthalpy [1, 6]: 57.15 (0.67) kJ mol^−1
ΔsolS^0 apparent standard entropy [1, 6]: 77.75 (1.03) J mol^−1 K^−1
ΔsolG^0 apparent standard Gibbs energy [1, 7]: 30.19 (0.39) kJ mol^−1
ΔsolH^0 apparent standard enthalpy [1, 7]: 52.98 (0.63) kJ mol^−1
ΔsolS^0 apparent standard entropy [1, 7]: 73.99 (1.00) J mol^−1 K^−1
ΔsolG^0 apparent standard Gibbs energy [1, 8]: 27.15 (0.37) kJ mol^−1
ΔsolH^0 apparent standard enthalpy [1, 8]: 46.19 (0.52) kJ mol^−1
ΔsolS^0 apparent standard entropy [1, 8]: 61.83 (0.98) J mol^−1 K^−1
ΔsolG^0 apparent standard Gibbs energy [1, 9]: 24.14 (0.36) kJ mol^−1
ΔsolH^0 apparent standard enthalpy [1, 9]: 41.89 (0.48) kJ mol^−1
ΔsolS^0 apparent standard entropy [1, 9]: 57.59 (0.92) J mol^−1 K^−1
ΔsolG^0 apparent standard Gibbs energy [1, 10]: 21.13 (0.30) kJ mol^−1
ΔsolH^0 apparent standard enthalpy [1, 10]: 35.40 (0.42) kJ mol^−1
ΔsolS^0 apparent standard entropy [1, 10]: 46.31 (0.81) J mol^−1 K^−1
ΔsolG^0 apparent standard Gibbs energy [1, 11]: 18.10 (0.26) kJ mol^−1
ΔsolH^0 apparent standard enthalpy [1, 11]: 31.28 (0.40) kJ mol^−1
ΔsolS^0 apparent standard entropy [1, 11]: 42.78 (0.74) J mol^−1 K^−1
ΔsolG^0 apparent standard Gibbs energy [1, 12]: 15.10 (0.24) kJ mol^−1
ΔsolH^0 apparent standard enthalpy [1, 12]: 23.95 (0.32) kJ mol^−1
ΔsolS^0 apparent standard entropy [1, 12]: 28.74 (0.56) J mol^−1 K^−1
ΔsolG^0 apparent standard Gibbs energy [1, 13]: 12.07 (0.20) kJ mol^−1
ΔsolH^0 apparent standard enthalpy [1, 13]: 20.05 (0.28) kJ mol^−1
ΔsolS^0 apparent standard entropy [1, 13]: 25.90 (0.48) J mol^−1 K^−1
ΔsolG^0 apparent standard Gibbs energy [1, 14]: 9.078 (0.14) kJ mol^−1
ΔsolH^0 apparent standard enthalpy [1, 14]: 13.35 (0.22) kJ mol^−1
ΔsolS^0 apparent standard entropy [1, 14]: 13.87 (0.23) J mol^−1 K^−1
ΔsolG^0 apparent standard Gibbs energy [1, 15]: 6.077 (0.09) kJ mol^−1
ΔsolH^0 apparent standard enthalpy [1, 15]: 7.430 (0.10) kJ mol^−1
ΔsolS^0 apparent standard entropy [1, 15]: 4.392 (0.10) J mol^−1 K^−1
nature of dissolution ([1]; all {DMSO (1) + H2O (2)} mixes, including neat DMSO and H2O): endothermic and entropy-driven
γi activity coefficient ([3]; DMSO mass fraction m = 0.0, T = 298.2 K): 1,366,467
γi activity coefficient ([3]; DMSO mass fraction m = 0.0, T = 303.2 K): 972,627.0
γi activity coefficient ([3]; DMSO mass fraction m = 0.0, T = 308.2 K): 611,320.0
γi activity coefficient ([3]; DMSO mass fraction m = 0.0, T = 313.2 K): 441,076.0
γi activity coefficient ([3]; DMSO mass fraction m = 0.0, T = 318.2 K): 326,128.0
γi activity coefficient ([3]; DMSO mass fraction m = 0.1, T = 298.2 K): 384,000.0
γi activity coefficient ([3]; DMSO mass fraction m = 0.1, T = 303.2 K): 278,000.0
γi activity coefficient ([3]; DMSO mass fraction m = 0.1, T = 308.2 K): 187,000.0
γi activity coefficient ([3]; DMSO mass fraction m = 0.1, T = 313.2 K): 136,000.0
γi activity coefficient ([3]; DMSO mass fraction m = 0.1, T = 318.2 K): 106,000.0
γi activity coefficient ([3]; DMSO mass fraction m = 0.2, T = 298.2 K): 111,979.0
γi activity coefficient ([3]; DMSO mass fraction m = 0.2, T = 303.2 K): 83,952.80
γi activity coefficient ([3]; DMSO mass fraction m = 0.2, T = 308.2 K): 58,249.00
γi activity coefficient ([3]; DMSO mass fraction m = 0.2, T = 313.2 K): 43,099.10
γi activity coefficient ([3]; DMSO mass fraction m = 0.2, T = 318.2 K): 34,943.20
γi activity coefficient ([3]; DMSO mass fraction m = 0.3, T = 298.2 K): 31,441.80
γi activity coefficient ([3]; DMSO mass fraction m = 0.3, T = 303.2 K): 24,298.30
γi activity coefficient ([3]; DMSO mass fraction m = 0.3, T = 308.2 K): 17,811.50
γi activity coefficient ([3]; DMSO mass fraction m = 0.3, T = 313.2 K): 13,802.30
γi activity coefficient ([3]; DMSO mass fraction m = 0.3, T = 318.2 K): 11,402.70
γi activity coefficient ([3]; DMSO mass fraction m = 0.4, T = 298.2 K): 9161.740
γi activity coefficient ([3]; DMSO mass fraction m = 0.4, T = 303.2 K): 7310.360
γi activity coefficient ([3]; DMSO mass fraction m = 0.4, T = 308.2 K): 5568.540
γi activity coefficient ([3]; DMSO mass fraction m = 0.4, T = 313.2 K): 4372.740
γi activity coefficient ([3]; DMSO mass fraction m = 0.4, T = 318.2 K): 3713.1570
γi activity coefficient ([3]; DMSO mass fraction m = 0.5, T = 298.2 K): 2602.340
γi activity coefficient ([3]; DMSO mass fraction m = 0.5, T = 303.2 K): 2166.250
γi activity coefficient ([3]; DMSO mass fraction m = 0.5, T = 308.2 K): 1703.980
γi activity coefficient ([3]; DMSO mass fraction m = 0.5, T = 313.2 K): 1429.250
γi activity coefficient ([3]; DMSO mass fraction m = 0.5, T = 318.2 K): 1233.060
γi activity coefficient ([3]; DMSO mass fraction m = 0.6, T = 298.2 K): 751.8650
γi activity coefficient ([3]; DMSO mass fraction m = 0.6, T = 303.2 K): 644.3650
γi activity coefficient ([3]; DMSO mass fraction m = 0.6, T = 308.2 K): 534.7140
γi activity coefficient ([3]; DMSO mass fraction m = 0.6, T = 313.2 K): 438.6560
γi activity coefficient ([3]; DMSO mass fraction m = 0.6, T = 318.2 K): 399.5110
γi activity coefficient ([3]; DMSO mass fraction m = 0.7, T = 298.2 K): 211.8050
γi activity coefficient ([3]; DMSO mass fraction m = 0.7, T = 303.2 K): 189.9250
γi activity coefficient ([3]; DMSO mass fraction m = 0.7, T = 308.2 K): 164.4500
γi activity coefficient ([3]; DMSO mass fraction m = 0.7, T = 313.2 K): 146.1890
γi activity coefficient ([3]; DMSO mass fraction m = 0.7, T = 318.2 K): 133.4190
γi activity coefficient ([3]; DMSO mass fraction m = 0.8, T = 298.2 K): 61.49
γi activity coefficient ([3]; DMSO mass fraction m = 0.8, T = 303.2 K): 56.72
γi activity coefficient ([3]; DMSO mass fraction m = 0.8, T = 308.2 K): 51.11
γi activity coefficient ([3]; DMSO mass fraction m = 0.8, T = 313.2 K): 46.46
γi activity coefficient ([3]; DMSO mass fraction m = 0.8, T = 318.2 K): 42.45
γi activity coefficient ([3]; DMSO mass fraction m = 0.9, T = 298.2 K): 17.6
γi activity coefficient ([3]; DMSO mass fraction m = 0.9, T = 303.2 K): 16.68
γi activity coefficient ([3]; DMSO mass fraction m = 0.9, T = 308.2 K): 16.02
γi activity coefficient ([3]; DMSO mass fraction m = 0.9, T = 313.2 K): 14.84
γi activity coefficient ([3]; DMSO mass fraction m = 0.9, T = 318.2 K): 14.42
γi activity coefficient ([3]; DMSO mass fraction m = 1.0, T = 298.2 K): 5.057
γi activity coefficient ([3]; DMSO mass fraction m = 1.0, T = 303.2 K): 4.988
γi activity coefficient ([3]; DMSO mass fraction m = 1.0, T = 308.2 K): 4.919
γi activity coefficient ([3]; DMSO mass fraction m = 1.0, T = 313.2 K): 4.829
γi activity coefficient ([3]; DMSO mass fraction m = 1.0, T = 318.2 K): 4.791
solvation driven mechanism [4]: enthalpy-driven
Structure (SMILES): CC1=C(/C=C/C(C)=C/C=C/C(C)=C\C(=O)O)C(C)(C)CCC1 [ITN, isotretinoin]
total HSP (δt) [2]: 19.30 MPa^1/2

Source: article PMC10609013, “Solubility and Thermodynamic Analysis of Isotretinoin in Different (DMSO + Water) Mixtures” (Molecules, 2023)
